In PMC5283653, “Structural aspects of nucleotide ligand binding by a bacterial 2H phosphoesterase” (PLoS ONE, 2017):
Read-outs that look alike come from different tables or passages of the source.

Assays:
LigT [1] = molecular target: T1, LigT (Escherichia coli, UniProt Z9E1N8ZL79); assay: turnover to […]′-AMP seen in crystal; assay type: biochemical; conditions: 0.1 M Tris-HCl pH 7.4-7.5, 0.2 M MgCl2, PEG 8000; 5 mM ligand
T1 construct: N-terminal His6 tag with TEV site, tag cut with TEV protease; expressed in E. coli BL21(DE3); 20 kDa; monomer in solution

LigT [2] = molecular target: T1, LigT; assay: isothermal titration calorimetry; co-crystal structure; assay type: binding; conditions: 10 mM HEPES pH 7.5, 0.2 M NaCl, 0.1 mM TCEP, 25 °C, active site, read-out: dissociation constant

SMILES: Nc1ncnc2c1ncn2[C@@H]1O[C@H](CO)[C@H]2OP(=O)(O)O[C@H]21 [2′,3′-cAMP]
- turnover to 2′-AMP seen in crystal (LigT [1]): the reaction product is bound in the crystals grown in the presence of the substrate

SMILES: Nc1ncnc2c1ncn2[C@@H]1O[C@H](CO)[C@@H](O)[C@H]1OP(=O)(O)O [2′-AMP]
- Kd (LigT [2]; crystal grown with 2′,3′-cAMP): 140 µM

SMILES: Nc1ncnc2c1ncn2[C@@H]1O[C@H](CO)[C@@H](OP(=O)(O)O)[C@H]1O [3′-AMP]
- Kd (LigT [2]): 180 µM

SMILES: Nc1ncnc2c1ncn2[C@@H]1O[C@H](COP(=O)(O)OP(=O)(O)OP(=O)(O)O)[C@@H](O)[C@H]1O [ATP]
- Kd (LigT [2]; second crystal form 5LDP): 70 µM

SMILES: NC(=O)c1ccc[n+]([C@@H]2O[C@H](COP(=O)(O)OP(=O)(O)OC[C@H]3O[C@@H](n4cnc5c(N)ncnc54)[C@H](OP(=O)(O)O)[C@@H]3O)[C@@H](O)[C@H]2O)c1 [NADP^+]
- Kd (LigT [2]; product analogue): 40 µM
